From US9233109B2, “Compositions, methods of use, and methods of treatment” (UNIVERSITY OF FLORIDA RESEARCH FOUNDATION, INC., priority 2010, dated 2016)
Like-named read-outs stand apart in the source and are kept apart here. One block for each compound: values may come before it.

How the values were obtained:
[1] = molecular target: T1, HS α4β2 (α4(2)β2(3)) nAChR (Homo sapiens, UniProt P17787+P43681); assay: Bath application of test compound: inhibition of ACh-evoked peak currents in Xenopus oocytes; format: cell-based
T1 construct: expressed in transfected cells; host or cells: Xenopus laevis oocytes injected with cRNA
T1 sequence (P17787 26-502): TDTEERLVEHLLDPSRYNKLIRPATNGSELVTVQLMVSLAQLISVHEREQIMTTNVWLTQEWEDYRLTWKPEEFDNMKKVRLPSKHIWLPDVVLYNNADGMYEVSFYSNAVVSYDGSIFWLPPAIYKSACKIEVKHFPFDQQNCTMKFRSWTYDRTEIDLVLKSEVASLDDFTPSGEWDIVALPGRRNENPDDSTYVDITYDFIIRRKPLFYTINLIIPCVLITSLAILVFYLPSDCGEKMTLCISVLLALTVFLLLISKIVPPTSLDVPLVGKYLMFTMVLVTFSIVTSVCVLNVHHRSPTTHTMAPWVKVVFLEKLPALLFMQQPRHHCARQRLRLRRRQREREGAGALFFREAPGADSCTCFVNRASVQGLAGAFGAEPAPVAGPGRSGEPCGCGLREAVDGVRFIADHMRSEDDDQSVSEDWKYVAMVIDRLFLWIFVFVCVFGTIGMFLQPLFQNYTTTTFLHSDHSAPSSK
T1 sequence (P43681 29-627 limits assumed): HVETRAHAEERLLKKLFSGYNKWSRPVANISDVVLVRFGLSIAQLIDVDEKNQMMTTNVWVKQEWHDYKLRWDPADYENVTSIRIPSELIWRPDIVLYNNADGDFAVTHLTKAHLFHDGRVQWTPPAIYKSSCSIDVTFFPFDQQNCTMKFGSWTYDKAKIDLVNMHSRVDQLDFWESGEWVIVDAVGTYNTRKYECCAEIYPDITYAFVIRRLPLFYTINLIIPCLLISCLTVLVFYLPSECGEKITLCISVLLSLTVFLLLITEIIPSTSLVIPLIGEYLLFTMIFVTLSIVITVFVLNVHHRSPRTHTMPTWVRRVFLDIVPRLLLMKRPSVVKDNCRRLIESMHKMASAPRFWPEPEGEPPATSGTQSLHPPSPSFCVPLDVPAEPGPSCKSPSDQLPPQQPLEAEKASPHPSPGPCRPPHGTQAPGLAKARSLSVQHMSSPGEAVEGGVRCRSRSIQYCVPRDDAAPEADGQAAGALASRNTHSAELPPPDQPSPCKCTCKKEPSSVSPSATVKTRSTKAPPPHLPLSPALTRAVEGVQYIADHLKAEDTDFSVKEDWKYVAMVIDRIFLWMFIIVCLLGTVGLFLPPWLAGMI
T1 sequence (P17787 26-502): as the sequence (P17787 26-502) above
Procedure: (§1) We have extended this approach to defined receptor subtypes expressed in Xenopus oocytes. Experiments were conducted on cells expressing HS α4β2 (α4(2)β2(3)), LS α4β2 (α4(3)β2(2)), or α7 nAChR.
(§2) cDNA: Human nAChR receptor clones and concatamers were obtained from Dr. Jon Lindstrom (University of Pennsylvania, Philadelphia Pa.). The human RIC-3 clone, obtained from Dr. Millet Treinin (Hebrew University, Jerusalem Israel), was co-injected with α7 to improve the levels and speed of receptor expression.
(§3) Oocyte preparation: Oocytes were surgically removed from mature Xenopus laevis frogs and injected with 50 nl (5-20 ng) of appropriate nAChR subunit cRNAs as described previously (Horenstein et al., 2008).
(§4) Experiments were conducted using OpusXpress 6000A (Molecular Devices, Union City Calif.) and analyzed as described previously (Papke and Papke, 2002; Horenstein et al., 2008; Papke and Stokes, 2010).
(§5) Initial experiments were run for 50 minutes after the introduction of the experimental compounds into the bath.

[2] = molecular target: T2, LS α4β2 (α4(3)β2(2)) nAChR (Homo sapiens, UniProt P17787+P43681); assay: as above; format: cell-based
T2 construct: expressed in transfected cells; host or cells: Xenopus laevis oocytes injected with cRNA
T2 sequence (P17787 26-502): as above
T2 sequence (P43681 29-627 limits assumed): as the sequence (P43681 29-627 limits assumed) above
T2 sequence (P43681 29-627 limits assumed): as above
Procedure: as §1, §2, §3, §4, §5

[3] = molecular target: T3, α7 nAChR (Homo sapiens, UniProt P36544); assay: Bath application of test compound: modulation of ACh-evoked net charge responses in Xenopus oocytes; format: cell-based
T3 construct: expressed in transfected cells; host or cells: Xenopus laevis oocytes injected with cRNA
T3 sequence (P36544 23-502): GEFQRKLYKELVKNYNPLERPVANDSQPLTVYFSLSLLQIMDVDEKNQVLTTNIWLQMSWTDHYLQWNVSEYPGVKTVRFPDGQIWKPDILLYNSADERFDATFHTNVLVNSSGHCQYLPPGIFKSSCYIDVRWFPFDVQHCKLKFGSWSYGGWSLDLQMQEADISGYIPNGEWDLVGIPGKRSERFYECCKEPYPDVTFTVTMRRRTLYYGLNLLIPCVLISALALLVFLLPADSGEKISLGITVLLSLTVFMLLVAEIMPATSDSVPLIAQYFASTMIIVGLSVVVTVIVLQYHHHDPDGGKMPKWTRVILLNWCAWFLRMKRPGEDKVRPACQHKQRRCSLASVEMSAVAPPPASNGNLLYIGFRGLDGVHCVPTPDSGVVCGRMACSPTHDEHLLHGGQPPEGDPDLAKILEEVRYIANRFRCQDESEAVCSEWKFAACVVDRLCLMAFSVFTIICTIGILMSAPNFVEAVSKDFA
Procedure: as §1, §2, §3, §4, §5

[4] = tested on: α4(3)β2(2), α4(2)β2(3) and α7 nAChR; assay: Baseline shifts / steady-state currents in the presence of bath-applied 3-pyr-Cyt, oocytes; format: cell-based, human; conditions: bath application
Procedure: FIG. 2.8 is a summary of the effects of bath-applied 3-pyr-Cyt on α4(3)β2(2) and α4(2)β2(3) and α7 nAChR. Bath application experiments were conducted as described for cytisine, varenicline, and nicotine.
One such compound is 3-(pyridin-3′-yl)-cytisine (3-pyr-Cyt), an agent proposed to have very little likelihood of off-target α7 activity (Mineur et al., 2009).

[5] = molecular target: T4, α4(2)β2(2)α5 nAChR (Homo sapiens, UniProt P17787+P30532+P43681); assay: Bath application of test compound: inhibition of ACh-evoked responses in Xenopus oocytes; format: cell-based
T4 construct: expressed in transfected cells; host or cells: Xenopus laevis oocytes injected with cRNA
T4 sequence (P17787 26-502): as the sequence (P17787 26-502) above
T4 sequence (P43681 29-627 limits assumed): as the sequence (P43681 29-627 limits assumed) above
T4 sequence (P30532 23-468): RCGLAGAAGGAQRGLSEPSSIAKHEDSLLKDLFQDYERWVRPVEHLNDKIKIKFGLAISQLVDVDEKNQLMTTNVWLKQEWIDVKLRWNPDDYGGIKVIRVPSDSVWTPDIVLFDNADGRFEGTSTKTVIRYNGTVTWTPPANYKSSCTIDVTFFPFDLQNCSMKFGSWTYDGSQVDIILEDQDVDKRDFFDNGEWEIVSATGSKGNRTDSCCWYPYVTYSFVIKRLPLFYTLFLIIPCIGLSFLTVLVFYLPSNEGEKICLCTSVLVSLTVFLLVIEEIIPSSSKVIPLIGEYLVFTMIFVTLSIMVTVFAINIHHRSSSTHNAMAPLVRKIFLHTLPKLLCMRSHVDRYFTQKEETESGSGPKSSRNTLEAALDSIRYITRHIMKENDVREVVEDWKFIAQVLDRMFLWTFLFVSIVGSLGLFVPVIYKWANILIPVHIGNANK
Procedure: as §2, §3, §4, §5
(§6) Recently, attention has been drawn to α5 as a member of a gene cluster associated with high risk for cancer and heavy smoking (Saccone et al., 2007). In the periphery, α5 is most likely expressed in association with the other members of its gene cluster, α3 and β4.

[6] = molecular target: T4, α4(2)β2(2)α5 nAChR; assay: Mecamylamine-sensitive steady-state activation during bath application, oocytes; format: cell-based; conditions: bath concentration 1 μM
From the text: (§7) In our bath application experiments we frequently saw small responses at the beginning of the bath applications, and sometimes there were significant shifts in baseline holding current that occurred over the long periods of recording. While increases in baseline current would be consistent with the stimulation of steady-state currents, baseline shifts can occur for other reasons as well, especially if the quality of the voltage clamp diminished over a long period of recording.
(§8) Even after just 30 minutes of continual bath application, a large shift in baseline was apparent. […] Table 3 provides a summary of the mecamylamine-sensitive steady-state currents measured for each of the drug-receptor combinations associated with drifting baselines.

[7] = molecular target: T5, α4(2)β2(3) nAChR (Homo sapiens, UniProt P17787+P43681); assay: as above; format: cell-based; conditions: bath concentration 100 nM
T5 construct: expressed in transfected cells; host or cells: Xenopus laevis oocytes injected with cRNA
T5 sequence (P17787 26-502): as the sequence (P17787 26-502) above
T5 sequence (P43681 29-627 limits assumed): as the sequence (P43681 29-627 limits assumed) above
T5 sequence (P17787 26-502): as the sequence (P17787 26-502) above
From the text: as §7, §8

[8] = molecular target: T6, α4(3)β2(2) nAChR (Homo sapiens, UniProt P17787+P43681); assay: as above; format: cell-based; conditions: bath concentration 300 nM
T6 construct: expressed in transfected cells; host or cells: Xenopus laevis oocytes injected with cRNA
T6 sequence (P17787 26-502): as above
T6 sequence (P43681 29-627 limits assumed): as the sequence (P43681 29-627 limits assumed) above
T6 sequence (P43681 29-627 limits assumed): as above
From the text: as §7, §8

[9] = molecular target: T7, α4β2α5 nAChR (Homo sapiens, UniProt P17787+P30532+P43681); assay: Agonist activation of α4β2α5 receptors in oocytes; format: cell-based
T7 construct: expressed in transfected cells; host or cells: Xenopus laevis oocytes injected with cRNA
T7 sequence (P17787 26-502): as the sequence (P17787 26-502) above
T7 sequence (P43681 29-627 limits assumed): as the sequence (P43681 29-627 limits assumed) above
T7 sequence (P30532 23-468): as the sequence (P30532 23-468) above
From the text: as §6

[10] = Mineur et al., 2009; cited from earlier work
[11] = molecular target: T6, α4(3)β2(2) nAChR; assay: Acute co-application of ACh and cytisine, model fit of peak current responses in oocytes; format: cell-based
From the text: (§9) FIG. 2.1 illustrates a model applied to the activation of nAChR by simultaneous co-applications of the full agonist “a” and a partial agonist “p”. […] The IMax of the full agonist is assigned a value of 1. The first and second terms of the equation represent the activation produced by the full agonist and partial agonists, respectively, scaled by their potencies and weighted by receptor availability. The third term allows noncompetitive effects of the partial agonist. If such noncompetitive activity is inhibitory, then ni is assigned a negative value.
(§10) Acute responses to agonist/partial agonist applications were fit with a general non-linear regression model, implemented as an option in a Windows data analyses and graphical presentation program (CAS Data Forge). The terms na, np, ni, Rmaxp, Inmaxp, EC50a, EC50p, and IC50p were given starting estimates based on the data obtained with the drugs applied separately. Tolerance factor (typically 1×10^−5) range limits for each parameter were specified. […] A predicted matrix was then calculated for each cell of the matrix, based on the a and p concentrations, the set of parameters listed above, and the governing equation. The residuals across all cells were calculated, and an iterative process was utilized to revise the parameters to minimize the residuals and allow the estimates to be revised accordingly. When the difference of estimates for any given parameter for consecutive iterations fell below the tolerance factor, that parameter was fixed at the last estimate. When all parameters were fixed or no convergent solution was found, the process stopped, and the set of parameters representing the best fit along with the resulting matrix was provided.
(§11) The Imax for the full agonist was constrained to 1 while the Imax for the partial agonist was a free parameter <1.0.
(§12) Curve fit values for the drugs when applied alone were used as seeds for the competitive interactions.

[12] = tested on: α4β2 receptors; conditions: cited from earlier work
[13] = molecular target: human α7 receptors (Homo sapiens, UniProt P36544); conditions: cited from earlier work
Chain of human α7 receptors (P36544 23-502): as the sequence (P36544 23-502) above

[14] = preliminary findings of clinical trials, schizophrenics; cited from earlier work
[15] = molecular target: T3, α7 nAChR; assay: Acute co-application of ACh and S 24795, model fit of net charge responses in oocytes; format: cell-based
From the text: as §9, §10, §11, §12

[16] = tested on: α4(3)β2(2), α4(2)β2(3), α4(2)β2(2)α5 and α7 nAChR; assay: Test of bupropion for receptor activation, oocytes; format: cell-based, human; conditions: 300 nM to 300 μM
[17] = molecular target: T5, α4(2)β2(3) nAChR; assay: Bupropion co-applied with ACh: inhibition of ACh-evoked responses, oocytes; format: cell-based; conditions: co-applied with 10 μM ACh
Procedure: as §5

[18] = molecular target: T3, α7 nAChR; assay: as above; format: cell-based
Procedure: as §5

[19] = molecular target: T6, α4(3)β2(2) nAChR; assay: as above; format: cell-based; conditions: co-applied with 30 μM ACh
Procedure: as §5

[20] = molecular target: T7, α4β2α5 nAChR; assay: as above; format: cell-based; conditions: co-applied with 3 μM ACh
[21] = read-out: IC50 for the inhibition of ACh evoked responses by bath applications of agonists and partial agonists, Table 2, after 30±4 min bath application, 10 μM ACh
[22] = read-out: IC50 for the inhibition of ACh evoked responses by bath applications of agonists and partial agonists, Table 2, after 30±4 min bath application, 30 μM ACh
[23] = Example 1, average of 30-40 min time points, 60 μM ACh, net charge, read-out: IC50, inhibition of ACh-evoked responses by prolonged bath application
[24] = IC50, inhibition of ACh-evoked responses by prolonged bath application
[25] = IC50 for the inhibition of ACh evoked responses by bath applications of agonists and partial agonists
[26] = noncompetitive inhibition factor
[27] = noncompetitive inhibition factor, read-out: Inhibition IC50 of the partial agonist (best fit)
[28] = relative to ACh maximum, ACh constrained to 1
[29] = read-out: IC50, inhibition of ACh-evoked responses by prolonged bath application

Structure (SMILES): O=c1c(-c2cccnc2)ccc2n1C[C@@H]1CNC[C@H]2C1 [3-pyr-Cyt, 3-(pyridin-3′-yl)-cytisine]
effect on ACh-evoked responses at low concentration ([1]; 30 nM in bath): partial inhibition
IC50 ([1]; Example 1, average of 30-40 min time points, 10 μM ACh, peak currents, read-out: IC50, inhibition of ACh-evoked responses by prolonged bath application): 0.653 ± 0.5 µM
IC50 [1, 21]: 0.6 ± 0.5 µM
IC50 ([2]; Example 1, average of 30-40 min time points, 30 μM ACh, peak currents, read-out: IC50, inhibition of ACh-evoked responses by prolonged bath application): 5.4 ± 4 µM
IC50 [2, 22]: 16 µM
IC50 [3, 23]: 103 ± 25 µM
concentration at which significant inhibition of α7-mediated responses was achieved ([3]; highest concentration tested): 100 µM
baseline shifts or steady-state currents [4]: no baseline shifts or steady-state currents
IC50 ([5]; read-out: IC50 for the inhibition of ACh evoked responses by bath applications of agonists and partial agonists, Table 2, after 30±4 min bath application, 3 μM ACh): 2.3 µM

Structure (SMILES): O=c1cccc2n1C[C@@H]1CNC[C@H]2C1 [Cytisine, cytisine]
Mecamylamine-sensitive steady-state activation relative to ACh maximum evoked transient responses [6]: 2.5 ± 0.5%
Mecamylamine-sensitive steady-state activation relative to ACh maximum evoked transient responses [7]: 1.4 ± 0.1%
Mecamylamine-sensitive steady-state activation relative to ACh maximum evoked transient responses [8]: 1.1 ± 0.2%
IC50 [1]: 0.008 ± 0.005 µM
IC50 [2, 24]: 0.085 ± 0.044 µM
IC50 [2, 25]: 0.027 ± 0.014 µM
EC50 [9]: 0.018 ± 0.009 µM
efficacy for α4β2α5 receptors, % that of ACh [9]: 6±1%
potency at reducing immobility compared with mecamylamine [10]: equipotent as the pure antagonist mecamylamine
IC50 [3, 24]: 0.3 ± 0.2 µM
IC50 [3, 25]: 1.2 µM
IC50 [5]: 0.0032 ± 0.0016 µM
Activation n (Hill coefficient, best fit) [11]: 0.61
best fit IC50 relative to EC50 [11]: three-fold lower
Inhibition Inmax of the partial agonist (best fit) [11, 26]: 0.7
Inhibition n (Hill coefficient, best fit) [11, 26]: 1.7
IC50 [11, 27]: 32 µM
EC50 ([11]; peak current, read-out: Activation EC50 (best fit)): 88 µM
Activation Rmax (best fit) [11, 28]: 0.35
efficacy for α4β2 receptors, % that of ACh [12]: < 20%

Structure (SMILES): COc1ccc(/C=C2\CCCN=C2c2cccnc2)c(OC)c1 [GTS-21, 3-(2,4-dimethoxybenzylidene)anabaseine]
IC50 [1, 29]: 0.17 ± 0.1 µM
IC50 [2, 29]: 1 ± 0.4 µM
EC50 ([13]; Papke and Papke, 2002, read-out: EC50 for transient receptor activation): ~6 µM
efficacy for human α7 receptors, % that of ACh [13]: about 20%
IC50 [3]: 1.3 µM
IC50 [3, 23]: 1.2 ± 0.4 µM
α7 ACh-evoked responses above the baseline controls ([3]; bath application of 30 nM): 37±15%
bath concentrations at which α7 ACh-evoked responses were inhibited ([3]; long-term bath application, net charge): greater than 300 nM
clinical ratings of negative symptoms [14]: improved clinical ratings of negative symptoms

Structure (SMILES): CN1CCCC1c1cccnc1 (stereo not drawn) [Nicotine, nicotine]
efficacy for α4β2α5 receptors, % that of ACh [9]: approximately 35%

Structure (SMILES): C[n+]1ccccc1CC(=O)c1ccc(Br)cc1 [S 24795, 2-[2-(4-bromophenyl)-2-oxoethyl]-1-methylpyridinium]
IC50 [1, 21]: 53 µM
IC50 [2, 22]: 36 µM
Activation n (Hill coefficient, best fit) [15]: 0.85
best fit IC50 relative to EC50 (higher) [15]: 70 fold
EC50 ([15]; net charge, read-out: Activation EC50 (best fit)): 14 µM
Inhibition Inmax of the partial agonist (best fit) [15, 26]: 1.0
Inhibition n (Hill coefficient, best fit) [15, 26]: 0.26
IC50 [15, 27]: 1000 µM
Activation Rmax (best fit) [15, 28]: 0.20
IC50 ([3]; read-out: IC50 for the inhibition of ACh evoked responses by bath applications of agonists and partial agonists, Table 2, after 30±4 min bath application, 60 μM ACh, * = inhibition following a phase of potentiation): 15 µM

Structure (SMILES): c1cnc2cc3c(cc2n1)C1CNCC3C1 [Varenicline, 7,8,9,10-tetrahydro-6,10-methano-6H-pyrazino (2,3-h)(3) benzazepine]
efficacy for α4β2α5 receptors, % that of ACh [9]: 9±1%
inhibition at 1 µM ([5]; read-out: inhibition of transient ACh-evoked responses): 100%

Bath application n (Hill slope of inhibition) ([1]; 30 minutes in bath): −0.40 ± 0.10
Bath application n (Hill slope of inhibition) ([2]; 30 minutes in bath): −1.2 ± 0.4
Co-application n (Hill slope of inhibition) [17]: −0.80 ± 0.05
Co-application n (Hill slope of inhibition) ([18]; co-applied with 60 μM ACh): −0.74 ± 0.09
IC50 ([18]; read-out: Co-application IC50): 46 ± 7 µM
Co-application n (Hill slope of inhibition) [19]: −0.93 ± 0.11
Bath application n (Hill slope of inhibition) ([3]; 30 minutes in bath): −1.5 ± 0.5
IC50 ([3]; 30 minutes in bath, read-out: Bath application IC50): 16 ± 3 µM
Bath application n (Hill slope of inhibition) ([5]; 30 minutes in bath): −0.47 ± 0.09
Co-application n (Hill slope of inhibition) [20]: −0.70 ± 0.04
Structure (SMILES): CC(NC(C)(C)C)C(=O)c1cccc(Cl)c1 (stereo not drawn) [bupropion]
receptor activation by bupropion [16]: no activation above our level of detection

Structure (SMILES): C[N+](C)(C)CCO [choline]
IC50 [3, 24]: 6.7 ± 1.2 µM
